Measured values as given in ChEMBL document CHEMBL1201862, “PubChem BioAssay data set” (2004).
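Where inhibition never reached the appropriate level, the endpoint shown equals the highest concentration tested. Otherwise, values were interpolated linearly from a five-concentration, 48-hour dose response in 96-well plates. GI50 is the concentration that inhibits growth by half.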 The source made the active and inactive calls. Rule as the data show it: active = GI50 up to about 1.1 µM and inactive = higher.

Legend:
Experiment in all cases: growth of human tumour cells (NCI), 48 h
SK-MEL-2 = system: SK-MEL-2
M14 = system: M14
NCI-H23 = system: NCI-H23
SNB-75 = system: SNB-75
NCI-H460 = system: NCI-H460
IGROV-1 = system: IGROV-1
MCF7 = system: MCF7
EKVX = system: EKVX
K562 = system: K562
BT-549 = system: BT-549
SF-539 = system: SF-539
SF-295 = system: SF-295
HL-60 = system: HL-60
HCC 2998 = system: HCC 2998
MOLT-4 = system: MOLT-4
OVCAR-3 = system: OVCAR-3
HOP-62 = system: HOP-62
RXF 393 = system: RXF 393
NCI/ADR-RES = system: NCI/ADR-RES
HOP-92 = system: HOP-92

SMILES	GI50 (SK-MEL-2)	GI50 (M14)	GI50 (NCI-H23)	GI50 (SNB-75)	GI50 (NCI-H460)	GI50 (IGROV-1)	GI50 (MCF7)	GI50 (EKVX)	GI50 (K562)	GI50 (BT-549)	GI50 (SF-539)	GI50 (SF-295)	GI50 (HL-60)	GI50 (HCC 2998)	GI50 (MOLT-4)	GI50 (OVCAR-3)	GI50 (HOP-62)	GI50 (RXF 393)	GI50 (NCI/ADR-RES)	GI50 (HOP-92)
Cc1ccccc1N(C)S(=O)(=O)c1ccccc1[N+](=O)[O-]	47.5 µM (inactive)	20.8 µM (inactive)	31.5 µM (inactive)	47.6 µM (inactive)	36.1 µM (inactive)	> 100 µM (inactive)	42.5 µM (inactive)	32.2 µM (inactive)	28.7 µM (inactive)	33 µM (inactive)	36.5 µM (inactive)	42.5 µM (inactive)	27.9 µM (inactive)	51.3 µM (inactive)	27.9 µM (inactive)	46.3 µM (inactive)	48.2 µM (inactive)	21.3 µM (inactive)	25.1 µM (inactive)	
COc1ccc2nc3cc(Cl)ccc3c(NCCCNCc3cc(OC)c(OC)c(OC)c3)c2c1	1.91 µM (inactive)	1.65 µM (inactive)	1.71 µM (inactive)		1.64 µM (inactive)	1.82 µM (inactive)	1.75 µM (inactive)	1.47 µM (inactive)	0.465 µM (active)	1.76 µM (inactive)	1.87 µM (inactive)	1.51 µM (inactive)	0.895 µM (active)	1.75 µM (inactive)	0.515 µM (active)	1.83 µM (inactive)	1.32 µM (inactive)	1.46 µM (inactive)	2.08 µM (inactive)	
CCOC(=O)CC(c1ccccc1)C(C)(C(=O)OCC)C(=O)OCC (stereo unspecified)	> 100 µM (inactive)	> 100 µM (inactive)	> 100 µM (inactive)	87.3 µM (inactive)	> 100 µM (inactive)	> 100 µM (inactive)	> 100 µM (inactive)	> 100 µM (inactive)	> 100 µM (inactive)	70.1 µM (inactive)	> 100 µM (inactive)	> 100 µM (inactive)	> 100 µM (inactive)	> 100 µM (inactive)	76.9 µM (inactive)		> 100 µM (inactive)	3.23 µM (inactive)	> 100 µM (inactive)	
CCN1C(=O)/C(=C2\SC(c3ccccc3)(c3ccccc3)c3ccccc32)SC1=S		93.1 µM (inactive)	> 100 µM (inactive)	53.1 µM (inactive)	> 100 µM (inactive)	70.3 µM (inactive)	> 100 µM (inactive)	75.9 µM (inactive)	> 100 µM (inactive)	43.9 µM (inactive)	46.7 µM (inactive)	24.4 µM (inactive)		> 100 µM (inactive)	96.4 µM (inactive)	51.9 µM (inactive)	27.5 µM (inactive)	> 100 µM (inactive)	> 100 µM (inactive)	30.5 µM (inactive)
C/C=C1/C[C@@H](C)[C@@](C)(O)C(=O)OCC2=CC[N+]3([O-])CC[C@@H](OC1=O)[C@@H]23 (stereo partly specified) [SENECIONINE N-OXIDE]	> 100 µM (inactive)	> 100 µM (inactive)	> 100 µM (inactive)	> 100 µM (inactive)	> 100 µM (inactive)	> 100 µM (inactive)	> 100 µM (inactive)	> 100 µM (inactive)	0.0482 µM (active)	> 100 µM (inactive)	> 100 µM (inactive)	> 100 µM (inactive)	> 100 µM (inactive)	> 100 µM (inactive)	> 100 µM (inactive)	> 100 µM (inactive)			> 100 µM (inactive)	> 100 µM (inactive)
Cc1cc(C)c(N[S+]([O-])c2cccc([N+](=O)[O-])c2)c(C)c1 (stereo unspecified)		> 100 µM (inactive)	> 100 µM (inactive)		> 100 µM (inactive)		> 100 µM (inactive)		> 100 µM (inactive)	> 100 µM (inactive)	> 100 µM (inactive)	> 100 µM (inactive)	> 100 µM (inactive)		> 100 µM (inactive)	> 100 µM (inactive)	> 100 µM (inactive)	> 100 µM (inactive)	> 100 µM (inactive)	> 100 µM (inactive)
CN(CCN1C(=O)c2cccc3cccc(c23)C1=O)CCN1C(=O)c2cccc3cccc(c23)C1=O	45.7 µM (inactive)	> 100 µM (inactive)	16.9 µM (inactive)	19.2 µM (inactive)	16.3 µM (inactive)	17.4 µM (inactive)	84.3 µM (inactive)	> 100 µM (inactive)	73.1 µM (inactive)	53.1 µM (inactive)	32.7 µM (inactive)	12.8 µM (inactive)	68.7 µM (inactive)		7.73 µM (inactive)	21.2 µM (inactive)	12.5 µM (inactive)	23.3 µM (inactive)	13.5 µM (inactive)	
COc1ccc(/N=[N+](\[O-])c2ccc(OC)cc2)cc1	> 100 µM (inactive)	> 100 µM (inactive)	> 100 µM (inactive)	> 100 µM (inactive)	> 100 µM (inactive)	> 100 µM (inactive)	> 100 µM (inactive)	> 100 µM (inactive)	> 100 µM (inactive)	> 100 µM (inactive)		> 100 µM (inactive)		> 100 µM (inactive)	> 100 µM (inactive)	> 100 µM (inactive)	> 100 µM (inactive)	> 100 µM (inactive)	> 100 µM (inactive)	> 100 µM (inactive)
CCN(CC)CCCOc1cc2c(cc1OC)C(=O)N1CCC[C@H]1C=N2	46 µM (inactive)	30.2 µM (inactive)			97.7 µM (inactive)		43 µM (inactive)	68.4 µM (inactive)	37.5 µM (inactive)	26.9 µM (inactive)	42.7 µM (inactive)	28.8 µM (inactive)	30.1 µM (inactive)		19.5 µM (inactive)	24.2 µM (inactive)	23.3 µM (inactive)	25.8 µM (inactive)	> 100 µM (inactive)	24.6 µM (inactive)
CCN(CC)CCCNC(=O)c1cc2cc(NC(=O)c3cc4cc([N+](=O)[O-])ccc4[nH]3)ccc2[nH]1	> 100 µM (inactive)	> 100 µM (inactive)	> 100 µM (inactive)	> 100 µM (inactive)	> 100 µM (inactive)	> 100 µM (inactive)	48.1 µM (inactive)	> 100 µM (inactive)	> 100 µM (inactive)	> 100 µM (inactive)	48.5 µM (inactive)	44.3 µM (inactive)		> 100 µM (inactive)		7.89 µM (inactive)	28.6 µM (inactive)	> 100 µM (inactive)	> 100 µM (inactive)	37.5 µM (inactive)
O=C(N/N=C\c1cccc2ccccc12)Nc1cccc2ccccc12	28.8 µM (inactive)	28.8 µM (inactive)	23.7 µM (inactive)	6.61 µM (inactive)	5.43 µM (inactive)	25.9 µM (inactive)	7.8 µM (inactive)	84.7 µM (inactive)	3.17 µM (inactive)	27.7 µM (inactive)	10.7 µM (inactive)		4.32 µM (inactive)	33.7 µM (inactive)	4.49 µM (inactive)		7.11 µM (inactive)	14.1 µM (inactive)	> 100 µM (inactive)	
O=C1C(c2c(O)[nH]c3ccc([N+](=O)[O-])cc23)=Nc2ccccc21	43.5 µM (inactive)	> 100 µM (inactive)	> 100 µM (inactive)	13.8 µM (inactive)	> 100 µM (inactive)	10 µM (inactive)	57.1 µM (inactive)	> 100 µM (inactive)	> 100 µM (inactive)	52.5 µM (inactive)		43 µM (inactive)		> 100 µM (inactive)	65.9 µM (inactive)	> 100 µM (inactive)	87.5 µM (inactive)	13 µM (inactive)	> 100 µM (inactive)	> 100 µM (inactive)
O=C(CC(c1ccccc1)C1C(=O)NC(=S)NC1=O)c1ccc([N+](=O)[O-])cc1 (stereo unspecified)	> 100 µM (inactive)	> 100 µM (inactive)	> 100 µM (inactive)	> 100 µM (inactive)	> 100 µM (inactive)	> 100 µM (inactive)	17.7 µM (inactive)	31.8 µM (inactive)	> 100 µM (inactive)	> 100 µM (inactive)	> 100 µM (inactive)	> 100 µM (inactive)	> 100 µM (inactive)	31.6 µM (inactive)	> 100 µM (inactive)	> 100 µM (inactive)	> 100 µM (inactive)		> 100 µM (inactive)	> 100 µM (inactive)
O=c1[nH]cc(NCCCl)c(=O)[nH]1	> 100 µM (inactive)	> 100 µM (inactive)	> 100 µM (inactive)	> 100 µM (inactive)	> 100 µM (inactive)	> 100 µM (inactive)	> 100 µM (inactive)	> 100 µM (inactive)	> 100 µM (inactive)	> 100 µM (inactive)	> 100 µM (inactive)	> 100 µM (inactive)		> 100 µM (inactive)	> 100 µM (inactive)	> 100 µM (inactive)	> 100 µM (inactive)	> 100 µM (inactive)	> 100 µM (inactive)	> 100 µM (inactive)
O=C(O)Cc1ccc2nc(COC(=O)c3ccccc3)sc2c1	> 100 µM (inactive)	> 100 µM (inactive)	> 100 µM (inactive)	> 100 µM (inactive)	> 100 µM (inactive)	> 100 µM (inactive)	> 100 µM (inactive)	> 100 µM (inactive)	> 100 µM (inactive)	> 100 µM (inactive)		> 100 µM (inactive)		> 100 µM (inactive)		> 100 µM (inactive)	> 100 µM (inactive)	> 100 µM (inactive)	> 100 µM (inactive)	> 100 µM (inactive)
